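Protocol summary: plate cells (96-well), add compound at 5 concentrations, incubate 48 h, interpolate endpoints linearly. TGI: total growth inhibition.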
Key:
Assay in all cases: growth of human tumour cells (NCI), 48 h
[1] = tested on: SNB-19 CNS
[2] = tested on: SNB-75 CNS
[3] = tested on: T-47D breast
[4] = tested on: NCI-H23 lung
[5] = tested on: SF-268 CNS
[6] = tested on: SK-MEL-2 melanoma
[7] = tested on: MDA-N
[8] = tested on: UACC-257 melanoma
[9] = tested on: SF-295 CNS
[10] = tested on: K-562 leukemia
[11] = tested on: HCT-15 colon
[12] = tested on: HL-60(TB) leukemia
[13] = tested on: CAKI-1 renal
[14] = tested on: UO-31 renal
[15] = tested on: LOX IMVI melanoma
[16] = tested on: OVCAR-8 ovarian
[17] = tested on: MCF7 breast
[18] = tested on: SW-620 colon
[19] = tested on: HT29 colon
[20] = tested on: IGROV1 ovarian
[21] = tested on: BT-549 breast
[22] = tested on: MDA-MB-435
[23] = tested on: OVCAR-4 ovarian
[24] = tested on: MDA-MB-231 breast
[25] = tested on: HCC-2998 colon
[26] = tested on: RXF 393 renal
[27] = tested on: NCI-H460 lung
[28] = tested on: HOP-62 NSCLC
[29] = tested on: MOLT-4 leukemia
[30] = tested on: HS 578T breast
[31] = tested on: SR leukemia
[32] = tested on: TK-10 renal
[33] = tested on: SK-MEL-28 melanoma
[34] = tested on: DU-145 prostate
[35] = tested on: MALME-3M melanoma
[36] = tested on: NCI-H226 lung
[37] = tested on: HCT-116 colon
[38] = tested on: NCI-H522 lung
[39] = tested on: ACHN renal
[40] = tested on: COLO 205 colon
[41] = tested on: PC-3 prostate
[42] = tested on: RPMI-8226 leukemia
[43] = tested on: SN12C renal
[44] = tested on: SK-MEL-5 melanoma
[45] = tested on: KM12 colon
[46] = tested on: OVCAR-5 ovarian
[47] = tested on: NCI/ADR-RES ovarian
[48] = tested on: U251 CNS
[49] = tested on: OVCAR-3 ovarian
[50] = tested on: 786-0 renal
[51] = tested on: UACC-62 melanoma
[52] = tested on: A498 renal
[53] = tested on: EKVX NSCLC
[54] = tested on: HOP-92 NSCLC
[55] = tested on: CCRF-CEM leukemia
[56] = tested on: A549 NSCLC
[57] = tested on: SF-539 CNS
[58] = tested on: M14 melanoma
[59] = tested on: SK-OV-3 ovarian

Measured: TGI

CC(=O)OCC1OC(Nc2ccc3nc(C)n(-c4cccc(C)c4)c(=O)c3c2)C(OC(C)=O)C(OC(C)=O)C1OC(C)=O (stereo not drawn)
not listed: [54] | [55] | [56] | [57] | [58] | [59]
> 62.5 µM: all other assays above

O=C(O)CCC(NC(=O)c1ccc(Nc2nc3ccccc3nc2C(=O)O)cc1)C(=O)O (stereo not drawn)
not listed: [11] | [15] | [18] | [26] | [27] | [36] | [41] | [52]
> 100 µM: all other assays above

O=C1NCC2(CCNCC2)N1c1ccccc1
not listed: [14] | [21] | [59]
> 100 µM: all other assays above

NS(=O)(=O)c1ccc(NC(=O)c2cc([N+](=O)[O-])cc([N+](=O)[O-])c2)cc1
47.2 µM: [7]
90.7 µM: [43]
84.9 µM: [49]
78.1 µM: [15]
57.2 µM: [35]
79.2 µM: [23]
85.8 µM: [3]
53.9 µM: [17]
86.8 µM: [41]
54.2 µM: [51]
79.9 µM: [20]
32 µM: [8]
97.4 µM: [12]
51.8 µM: [40]
35 µM: [22]
91.3 µM: [54]
not listed: [9] | [25] | [38] | [39] | [46] | [53]
> 100 µM: all other assays above
